# Results reported in PMC3675020, “Repositioning of Verrucosidin, a Purported Inhibitor of Chaperone Protein GRP78, as an Inhibitor of Mitochondrial Electron Transport Chain Complex I” (PLoS ONE, 2013).
# Target: T1, complex I (NADH dehydrogenase) (Mus musculus, UniProt P03888+Q91WD5+Q91YT0+Q9DC70)
# T1 construct: gene Ndufs2; native respiratory complex in intact isolated mouse liver mitochondria; with NADH dehydrogenase [ubiquinone] flavoprotein 2, mitochondrial; NADH-ubiquinone oxidoreductase 75 kDa subunit, mitochondrial; NADH dehydrogenase [ubiquinone] iron-sulfur protein 3, mitochondrial; NADH dehydrogenase [ubiquinone] iron-sulfur protein 8, mitochondrial; NADH-ubiquinone oxidoreductase chain 2; NADH-ubiquinone oxidoreductase chain 3; NADH-ubiquinone oxidoreductase chain 4; NADH-ubiquinone oxidoreductase chain 4L; NADH-ubiquinone oxidoreductase chain 5; NADH-ubiquinone oxidoreductase chain 6
# Experiment: NADH:DCIP reduction, absorbance […] nm
# Format: biochemical
# Settings: isolated mouse liver mitochondria; DCIP as artificial electron acceptor, glycylglycine pH 8.5; turnover only
compound,measurement,value
NC(=O)C1=CN([C@@H]2O[C@H](COP(=O)(O)OP(=O)(O)OC[C@H]3O[C@@H](n4cnc5c(N)ncnc54)[C@H](O)[C@@H]3O)[C@@H](O)[C@H]2O)C=CC1 [NADH],"NADH:DCIP reduction, absorbance 600 nm",artificial electron acceptor dichlorophenolindophenol (DCIP) in the presence of NADH
